Consider six compounds from US11780880B2, “High-activity memory-improving derivative peptide and use thereof” (Jilin Agricultural University, priority 2021, dated 2023).

Peptide text beside a SMILES is read from it.

A short description of data set [1]: ABTS free radical scavenging assay. The format is physicochemical. Conditions: concentration of 100 μM. The method, then:
(1) ABTS free radical scavenging assay: Equal volumes of a 7 mmol/L ABTS aqueous solution and a 2.49 mmol/L potassium persulfate aqueous solution were mixed and left to stand in the dark for 12 h to obtain an ABTS free radical stock solution, which was stored at 4° C. When in use, the stock solution was diluted with 5 mmol/L PBS until the absorbance of the solution was 0.700±0.002 at 734 nm, and an ABTS free radical working solution was prepared. Separately, 10 μL of each of the aqueous solutions of derivative peptides with a concentration of 100 μM was added to a 96-well plate, while glutathione (GSH) of the same concentration was used as a control; these solutions reacted with 190 μL of ABTS free radical working solution accurately for 6 min, and absorbance values (A1) were measured at a wavelength of 734 nm using a microplate reader. The calculation formula for scavenging rate is as follows: […]
where A0 is the absorbance value that replaces the derivative peptide solution with distilled water;
A1 is the absorbance value of the solution adding a derivative peptide or GSH; and
A2 is the absorbance value of the solution using 5 mmol/L PBS instead of the ABTS free radical working solution.

The nature of data set [2]: Oxygen radical antioxidant capacity (ORAC) assay. The data set is classed as physicochemical. Conditions: 100 μM aqueous solutions. The procedure:
(2) ORAC assay: (1) On a 96-well black plate, 25 μL each of PBS, Trolox standard solutions (12.5, 25, 50, and 100 μM) and aqueous solutions of five derivative peptides (100 μM) was added. The 96-well plate was placed and shaken in a microplate reader preheated for 30 min for 5 s, and incubated at 37° C. for 10 min. To each well, 150 μL each of FL working solution was added using a multi-channel pipette, and the plate was shaken for 5 s and incubated at 37° C. for 20 min. To each well, 25 μL each of AAPH was quickly added using the multi-channel pipette, and the plate was shaken for 5 s, followed by reading. The fluorescence intensity was continuously measured at an excitation wavelength of (485±20) nm and an emission wavelength of (530±20) nm. The whole system was held at 37° C., and the fluorescence intensity was measured every 2 min. Before each measurement, the well plate was shaken at a medium speed for 10 s, and the oscillation amplitude was 4 mm. The measurement was performed until the fluorescence intensity reached 5% of the initial fluorescence intensity (60 cycles were set in this assay). The relative fluorescence intensity is calculated by the area under the fluorescence decay curve (AUC) as follows: AUC=0.5×[2×(f0+f1 . . . +fn-1+fn)−f0−fn]×Δt
(1) In the formula, fn is the relative fluorescence intensity at the n-th measurement point; and Δt is the interval between adjacent time points, namely 2 min.
(2) The measurement results are expressed as ORAC values. The ORAC values of unknown samples are expressed in μmol TE/g. ORAC value=[(AUCSample−AUCBlank)/(AUCTrolox−AUCBlank)]×CTrolox/CSample.
Herein, AUCSample is the result of each of the aqueous solutions of five derivative peptides; AUCBlank is the result after adding 25 μL of PBS; AUCTrolox is the result after adding Trolox standard solution (100 μM); CTrolox is the molar concentration of Trolox, namely, 100 μM;
CSample is the molar concentration of each derivative peptide, calculated from the Trolox standard curve, where the Trolox standard curve is y=0.0756x+41.989, R^2=0.9931, the abscissa is the molar concentration of Trolox (12.5, 25, 50, or 100 μM), and the ordinate is AUCTrolox.

Data set [3] relates to scopolamine-induced memory impairment model mice. The experiment in a line: Morris water maze (place navigation and probe trial). The data set is classed as in vivo, Male C57BL/6N mice. The procedure:
In vivo studies were performed in accordance with the Guide for the Care and Use of Laboratory Animals published by the […]. Male C57BL/6N mice weighing 25-30 g were purchased from Liaoning Changsheng Biotechnology Co., Ltd. (Benxi, China). Mice were housed at a stable temperature (22±1° C.) under a 12 h/12 h light/dark cycle. The mice were given access to standard diet and water ad libitum. […]
A circular pool for Morris water maze (1,200 mm in diameter) was filled with warm water at 20±2° C., while a platform (65 mm diameter) was hidden in the Southwest (SW) quadrant 1 cm below the water surface. A mouse was gently placed in the Northeast (NE) quadrant facing the pool wall, the swimming trajectory of the mouse was recorded by the image acquisition system, and the time was measured for 120 s. The time it took to find the platform in the SW quadrant within 120 s was recorded as the latency, while the mouse that reached the platform was allowed to sit on the platform for 10 s and then returned to the holding cage. […] Subsequently, the time from the mice being placed in the water to finding the platform was analyzed and calculated according to the data acquisition system (see FIG. 2A). […]
After the place navigation was completed, the platform hidden in the water was taken out. A mouse was gently placed in the Northeast (NE) quadrant facing the pool wall, the swimming trajectory of the mouse was recorded by the image acquisition system, and the time was measured for 90 s. According to the data acquisition system, the time spent in the target quadrant (see FIG. 2B) and the frequency of original platform crossing (see FIG. 2C) within 90 s were analyzed and calculated on the mouse. […]

Data set [4] in a line: Acid-base stability testing (RP-HPLC peak area). The data set is classed as physicochemical. To be noted: 100 μM, pH 2, 4, 6, and 8, 37° C. for 2 h. The method, then: Acid-base Stability Testing (see FIG. 4B): • Step 1, the solid powder of derivative peptide WYSGK (SEQ ID NO: 4) was dissolved in distilled water to prepare a 100 μM solution, which was used as a blank group and stored at 4° C. for later use; • Step 2, the solid powder of derivative peptide WYSGK (SEQ ID NO: 4) was diluted with aqueous solutions with pH 2, 4, 6, and 8 to a concentration of 100 μmol/L, respectively, and the resulting solutions were incubated in a water bath at 37° C. for 2 h; • Step 3, the blank group and WYSGK (SEQ ID NO: 4) sample solutions at different pH were filtered through a 0.22 μm filter membrane; • Step 4, RP-HPLC was performed under the following conditions: detection wavelength: 220 nm; column temperature: 25° C.; mobile phase A: 100% acetonitrile+0.1% TFA; mobile phase B: 100% acetonitrile+0.1% TFA. Elution conditions were programmed as follows: 0-25 min, 10%-35% B (gradient elution); flow rate 1.0 mL/min; and • Step 5, the peak area in the liquid chromatogram was calculated to determine whether the derivative peptide WYSGK (SEQ ID NO: 4) was degraded at different pH (refer to Liu Xintong's method, Sci. Technol. Food Ind., Vol. 41, No. 19, 2020).

Data set [5] can be described thus: Simulated gastrointestinal digestion stability testing. The format is in vitro ADME. To be noted: pepsin up to 2 h then trypsin up to 2 h, 37° C.
Description: […]

A short description of data set [6]: Thermal stability testing (RP-HPLC peak area). The data set is classed as physicochemical. Conditions: 100 μM, pH 7.0, 20-100° C. water bath for 2 h. The method, then: Thermal Stability Testing (see FIG. 4A): • Step 1, the solid powder of derivative peptide WYSGK (SEQ ID NO:4) was dissolved in distilled water to prepare a 100 μM solution, the pH value was adjusted to 7.0, and the resulting solution was stored at 4° C. for later use; • Step 2, the derivative peptide WYSGK (SEQ ID NO: 4) solution in step 1 was divided into five tubes (1 mL/tube), and each tube was placed in a water bath at 20, 40, 60, 80, and 100° C. for 2 h; • Step 3, the blank group (the derivative peptide WYSGK (SEQ ID NO: 4) solution in step 1 without water bath treatment) and the derivative peptide WYSGK (SEQ ID NO:4) solution at each temperature were filtered through a 0.22 μm filter membrane; • Step 4, RP-HPLC was performed under the following conditions: detection wavelength: 220 nm; column temperature: 25° C.; mobile phase A: acetonitrile+0.1% (v/v) TFA; mobile phase B: acetonitrile+0.1% (v/v) TFA. Elution conditions were programmed as follows: 0-25 min, 10%-35% B (the value could be input in the liquid phase equipment); flow rate 1.0 mL/min; and • Step 5, the peak area in the liquid chromatogram was calculated to determine whether the derivative peptide WYSGK (SEQ ID NO:4) was degraded at different temperatures (refer to Liu Xintong's method, Sci. Technol. Food Ind., Vol. 41, No. 19, 2020).

Consider “Trp-Tyr-Glu-Gly-Lys (WYEGK; derivative peptide)”, for which, in data set [1], the “ABTS free radical scavenging rate” value amounted to 54.48%. Also, the ORAC value in data set [2] is reported as 5,422.29 μmol TE/g.

On to “Trp-Tyr-Lys-Gly-Lys (WYKGK; derivative peptide)”, for which, in data set [1], the “ABTS free radical scavenging rate” value stood at 40.31%. Besides, the ORAC value in data set [2] is on record as 3,681.50 μmol TE/g.

With `N[C@@H](CCC(=O)N[C@@H](CS)C(=O)NCC(=O)O)C(=O)O` [GSH, reduced glutathione, reference compound], in data set [1], the “ABTS free radical scavenging rate” value is 31.39%. The ORAC value in data set [2] was found to be 995.58 μmol TE/g.

“WYPGK: pine nut-derived antioxidant peptide, template for the derivative peptides (pine nut antioxidant peptide)”: the “escape latency compared with the model group” value in data set [3] (place navigation, 5-day training, FIG. 2A) was “shorter escape latency”. The “time spent in target quadrant compared with the model group” value in data set [3] (probe trial, within 90 s, FIG. 2B) was “significant decreases”. The “frequency of original platform crossing compared with the model group” value in data set [3] (probe trial, within 90 s, FIG. 2C) is “significant decreases”.

As for `NCCCC[C@H](NC(=O)CNC(=O)[C@H](CO)NC(=O)[C@H](Cc1ccc(O)cc1)NC(=O)[C@@H](N)Cc1c[nH]c2ccccc12)C(=O)O` [WYSGK, Trp-Tyr-Ser-Gly-Lys] (H-WYSGK-OH; N-terminus and C-terminus assumed), the “degradation at different pH (acid-base stability)” value in data set [4] is on record as “hardly degraded”. The “retention rate of peptide content” value in data set [5] is reported as “at least 93.45%”. Moreover, in data set [6], the “degradation at different temperatures (thermal stability)” value is recorded as “hardly degraded”.

Consider “Trp-Tyr-Phe-Gly-Lys (WYFGK; derivative peptide)”, for which, in data set [1], the “ABTS free radical scavenging rate” value turned out to be 36.56%. For the same compound, in data set [2], the ORAC value is 3,762.05 μmol TE/g.
